How the values were obtained:
[1] = Solubility of iron chloride hexahydrate and iron complexes (visual / assayed); format: physicochemical; settings: visual (*)
Protocol: Due to the high number of test samples (6 complexes plus the starting material, iron chloride hexahydrate) a visual solubility screen was used to screen the solubility in a range of solvents. […] Quantitative determination was performed by either incubating the complex in excess in the solvent using a shaking 37° C. water bath for 48 h or sonicating it for 2 hours at 40° C. or leaving overnight on a 50° C. hot plate. Once incubation period was completed, the exact solubility in a particular solvent was assayed (using the iron assay) after centrifugation (i.e. assay iron content in the supernatant using the Ferrozine® assay).

[2] = Iron complex adhesive compatibility and loading screen; format: physicochemical
Protocol: Pre-formulation studies were performed to determine the compatibility of the iron complexes with a range of transdermal patch adhesives (Table 15).
The compatibility of the complexes with the patch adhesives was assessed by mixing and visually checking the clarity of the mixture.
In the adhesives that were computable with the iron complexes the maximum drug loading of the complexes in the adhesive following solvent evaporation was determined. This was achieved by mixing the drug, adhesive and co-solvents until a clear solution was obtained at different drug:adhesive ratios and placing few drops of the mixture onto the patch backing sheet, leaving it to dry for 3-4 h, and examining the formed film on the surface of the backings for evidence of drug crystals.
Following complete drying of the solvents, the adhesive layer was covered by a release liner, compressed, and then cut using 34 mm circular manual die cutter (FIG. 23).

[3] = Iron adhesive patch skin permeation and deposition; format: in vitro ADME, porcine; settings: t-test p value, 0.5
Protocol: To perform the skin permeation studies, dermatomed skin (1 mm) was glued onto the receiver compartment of the Franz cell that contained 80:20 PG:water. A zero hour sample was taken from the receiver fluid, the patches were placed on top of the skin and held in place by a small weight (8.75 g). The patches that were tested were A2, A3, A4 (Table 16) as well as the existing commercial iron transdermal patch. After 24 hours, the receiver fluid was assayed using the quantitative iron assay and a compatible calibration in the same medium (80:20 PG:water) was used. The skin deposition was determined by removing the dermatomed skin from the donor compartment when the 24 h was completed, chopping into smaller pieces using scissors and incubating with the extraction fluid, ethanol. The samples were then transferred to Eppendorf tubes containing one stainless steel 5 mm bead and loaded into the TissuLyser II (Qiagen, Germany) for 30 min 30 Hz. The samples were centrifuged (5 min at 13,000 rpm) and supernatant assayed for iron content.

[4] = Iron complex reservoir solvent solubility screening; format: physicochemical; settings: Span 80, SDS, Tween 80 and Kolliphore EL
[5] = Solubility of zinc chloride and zinc complexes (visual / HPLC); format: physicochemical
Protocol: Accurate measurement of the solubility was then repeated for some of the solvent systems by HPLC. In the HPLC solubility studies, an excess of the test agents was loaded into 2 mL of each test solvent. The solutions were left stirring overnight at 32° C. […] The drug suspensions were then centrifuged, the supernatant diluted, and each sample concentration was measured using HPLC.

[6] = Franz cell porcine skin permeation and deposition of zinc from solutions; format: in vitro ADME; design: elemental zinc skin deposition: unit not given here
Protocol: Porcine skin permeation studies were performed to compare the permeation of zinc chloride and the zinc ethyl maltol complex. The permeation of zinc chloride vs zinc ethyl maltol from PG saturated solutions (zinc chloride and zinc ethyl maltol solutions in PG was 2.45 and 2.10 mg/mL, respectively) and permeation of zinc chloride from PG statured solution vs zinc ethyl maltol from PEG400 saturated solutions were investigated (zinc ethyl maltol in PEG400 100 mg/mL). In addition, the permeation of the zinc ethyl complex from PEG400 saturated solution and PEG400:PEG1000 (8:2% w/w) was compared. For the PEG mixture, the zinc ethyl maltol donor was prepared by dissolving 60 mg of the complex in 3 mL of methanol and 1 mL of 80% w/w PEG400:20% w/w PEG 1000 then added. The solution was left overnight to allow the evaporation of methanol.
Permeation studies were conducted using previously validated Franz cell method based on the principles of the FDA, SUPAC-SS guidelines [FDA (CDER), 1997, Guidance for industry—SUPAC-SS Non-sterile Semisolid Dosage Form, Scale-up and post-approval changes: chemistry, manufacturing, and controls; in vitro release testing and in vivo bioequivalence documentation](FIG. 4). On the day of the experiment, the porcine skin was defrosted and either prepared as full-thickness sheets but removing the fat or dermatome to a 1 mm thickness (Nouvag, AG). The tissue was cut into 34 mm circles to allow an exposure area of 2.19±0.21 cm^2 and positioned between donor and receiver compartments of Franz diffusion cells. Each piece of skin was sealed between the two compartments using parafilm (Bemis Company, Neenah, WI). A 12 mm magnetic stir bar was placed into the receiver compartment of each Franz cell. The receiver compartment was loaded with 50 mM phosphate-buffered saline (pH 7.4). The cell sealing was verified by Franz cell inversion (6 times) and monitoring solvent back diffusion. The temperature of the Franz diffusion was set at 37° C. in a water bath to reach a skin temperature of 32° C. After 1 h equilibration at 37° C. in the water bath, 1 mL of receiver fluid was withdrawn (time point=0 min), and a fresh receiver solution was replaced into the cell to keep the volume consistent. Each formulation (1 mL) was applied in the donor compartment that was then covered with parafilm to avoid evaporation. After 24 h, the receiver fluid was collected and analysed by HPLC.
At the end of the permeation studies, the Franz cells were dismantled. The donor solutions were collected from each cell and transferred into 5-mL glass bottles containing 2 mL of PDCA as extraction fluid. This step was followed by wiping the skin surface and the donor compartment with two wet (wetted with extraction fluid) and then two dry cotton buds. The skin's permeation area was then cut into small pieces by scalpels and placed into a 5 mL glass bottle containing 4 mL of extraction fluid. All skin samples were kept at the bench with extraction fluid for 1 hour. This step was followed by separating each vial's content (cut skin and extraction fluid) into 2 mL Eppendorf tubes that were then loaded in TissuLyser machine for 20 minutes. Samples were then centrifuged for 15 minutes at 13,000 rpm. The content of each Eppendorf tube was filtered using 0.45 µm syringe filters, collected, and analysed by HPLC.

[7] = Zinc ethyl maltol adhesive suitability (solubility/compatibility) screening; format: physicochemical
Protocol: Pre-formulation studies were performed to determine the compatibility of zinc ethyl maltol with a variety of adhesives that could be used to manufacture a transdermal patch (Table 2). The compatibility of the zinc complexes with the patch excipients was evaluated by examining the clarity of the mixture upon mixing. […] Following patch optimisation, the optimised drug-adhesive solutions were cast in 10×10 cm^2 trays made of the patch backing (3M™ Scotchpak™ Polyester Backing Film Laminate 9730, 3M, Germany). An adequate volume of the adhesive was applied to achieve a target coating level of 8 mg/cm^2 (equivalent to 80 g/m^2). Following complete drying of the solvents, the adhesive layer was covered by an M3 Release liner (SCOTCHPAK 9755), compressed, and then cut using a 34 mm circular manual die cutter (SCP Super Cutting Press).

[8] = Zinc ethyl maltol reservoir co-solvent solubility screening; format: physicochemical; settings: for Solubility in PEG400:PEG1000: 3 mL methanol
Protocol: Pre-formulation studies were completed to optimise the solubility of zinc ethyl maltol using a variety of co-solvents that could be applied to the skin, such as Transcutol and ethanol. Polymers such as PEG 1000, Natrsol M250, and PVP were used to aid the solubilisation process. The compatibility of the complex with the solvents was evaluated by examining the clarity of the mixture. Following the optimisation of the complex solubility, the reservoir patch was developed using the backing layer, drug in solution, and liner release layer. The backing used was 3M™ Scotchpak™ Polyester Backing Film Laminate 9730. Different liner release membranes were investigated including, regenerated cellulose (12-14 k molecular weight cut-off Medical International UK), nylon (0.20 μm, Whatman, UK), and CoTran 9728 (3M, Germany). A 200 μL aliquot of zinc ethyl maltol complex in solution was applied on the liner release membrane, then covered by the backing layer and all layers thermally sealed (HeatPress machine HP230B).
The solution left to evaporate overnight to form a supersaturated solution (Table 4). This solution was then loaded into the reservoir patch.

[9] = Franz cell porcine skin permeation and deposition of zinc from solutions; format: in vitro ADME; settings: solution in PEG (6 mg/mL)
[10] = drug loading 4%, no permeation enhancer
[11] = drug loading 8%, no permeation enhancer
[12] = drug loading 10%, 5.5 mg Transcutol
[13] = drug loading 10%, no permeation enhancer

SMILES: O=c1cc(CO)occ1[O-].O=c1cc(CO)occ1[O-].O=c1cc(CO)occ1[O-].[Fe+3] [Iron kojic, iron kojic acid]
- Solubility of complex (visual) ([1]; Chloroform): <6 mg/mL Iron kojic*
- Solubility of complex (visual) ([1]; Ethyl acetate): <6 mg/mL Iron kojic*
- Solubility of complex (visual) ([1]; Glycerol): <6 mg/mL Iron kojic*
- Solubility of complex (visual) ([1]; Hexane): <6 mg/mL Iron kojic*
- Solubility of complex (visual) ([1]; Methanol): ≥18 mg/mL Iron kojic*
- Solubility of complex (visual) ([1]; Oleic acid): <6 mg/mL Iron kojic*
- Solubility of complex (visual) ([1]; PEG400): <6 mg/mL Iron kojic*
- Solubility of complex (visual) ([1]; PG): ≥8 mg/mL Iron kojic*
- Solubility of complex (visual) ([1]; Propanol): <6 mg/mL Iron kojic*
- Solubility of complex (visual) ([1]; Transcutul): ≥ 8 mg/mL Iron kojic*
- Solubility of complex (visual) ([1]; Triaceten): <6 mg/mL Iron kojic*
- compatibility with adhesives [2]: only compatible with DURO-TAK 9301
- Solubility in DURO-TAK 9301 patch ([2]; drug loading 4%, 2 mg PG): Clear
- Solubility in DURO-TAK 9301 patch [2, 10]: Clear
- Solubility in DURO-TAK 9301 patch ([2]; drug loading 7%, 8 mg Maltol): Precipitated
- Solubility in DURO-TAK 9301 patch ([2]; drug loading 7.5%, 4 mg PG): Precipitated
- Solubility in DURO-TAK 9301 patch [2, 11]: Precipitated
- Solubility in DURO-TAK 9301 patch ([2]; drug loading 10%, 5.5 mg PG): Precipitated
- Solubility in DURO-TAK 9301 patch [2, 12]: Precipitated
- Solubility in DURO-TAK 9301 patch [2, 13]: Precipitated
- (maximum) complex loading achieved in adhesive ([2]; methanol stock solution 10 mg/mL): 4%
- complex loading achieved in adhesive patch ([2]; methanol stock solution 18 mg/mL): 8.5%
- deposition compared to existing commercial iron transdermal patch [3]: no significant difference

SMILES: Cc1occc(=O)c1[O-].Cc1occc(=O)c1[O-].Cc1occc(=O)c1[O-].[Fe+3] [Iron maltol made at pH 7.4, iron maltol]
- Solubility of complex (visual) ([1]; PEG400): <20 mg/mg/mL
- Solubility of complex (visual) ([1]; PG): ≥20 mg/mg/mL
- Solubility of complex (visual) ([1]; Transcutul): <20 mg/mg/mL
- Solubility in DURO-TAK 9301 patch ([2]; drug loading 4%, 2 mg PG): Clear
- Solubility in DURO-TAK 9301 patch [2, 10]: Clear
- Solubility in DURO-TAK 9301 patch ([2]; drug loading 6%, no permeation enhancer): Precipitated
- Solubility in DURO-TAK 9301 patch ([2]; drug loading 7%, 8 mg Maltol): Precipitated
- Solubility in DURO-TAK 9301 patch ([2]; drug loading 7.5%, 4 mg PG): Precipitated
- Solubility in DURO-TAK 9301 patch [2, 11]: Precipitated
- Solubility in DURO-TAK 9301 patch ([2]; drug loading 10%, 5.5 mg PG): Precipitated
- Solubility in DURO-TAK 9301 patch [2, 12]: Precipitated
- Solubility in DURO-TAK 9301 patch [2, 13]: Precipitated
- visual solubility [4]: ≤ 32000 µg/mL

SMILES: CCc1occc(=O)c1[O][Zn][O]c1c(CC)occc1=O [Zinc Ethyl Maltol, zinc ethyl maltol]
- Elemental zinc solubility evaluated by HPLC ([5]; solvent PEG400): 6600 µg/mL
- Elemental zinc solubility evaluated by HPLC ([5]; solvent PG): 2100 µg/mL
- Elemental zinc solubility evaluated by HPLC ([5]; solvent Transcutol): 6000 µg/mL
- transdermal permeation of elemental zinc ([6]; 1 mL PG solution, 24 h): 4.85 µg/cm^2
- permeation of elemental zinc ([6]; solution in PG ([…])): 41 μg/cm^2
- daily dose delivered by the solution ([6]; solution, extrapolated): approximately 2 mg
- elemental zinc passed through the skin ([6]; supersaturated solution (conclusions)): 237.93 μg/cm^2
- elemental zinc permeated through the skin ([6]; supersaturated solution in PEG400:PEG1000 (8% w/w:2% w/w), 24 h): 238 µg/cm^2
- elemental zinc skin deposition ([6]; vehicle PEG400, 24 h): 44.84
- transdermal permeation of elemental zinc ([6]; vehicle PEG400, 24 h): 174 µg/cm^2
- transdermal permeation compared to zinc chloride ([6]; zinc ethyl maltol in PEG400 vs zinc chloride in PG): 4.8 fold
- Solubility in DURO-TAK 9301 ([7]; drug loading 5%, no Transcutol): Not Soluble
- Solubility in DURO-TAK 9301 ([7]; drug loading 7.4%, Transcutol 12.5 mg): Soluble
- Solubility in DURO-TAK 9301 ([7]; drug loading 7.5%, no Transcutol): Not Soluble
- Solubility in DURO-TAK 9301 ([7]; drug loading 10%, no Transcutol): Not Soluble
- Solubility in DURO-TAK 9301 ([7]; drug loading […], no Transcutol): Not Soluble
- Solubility in PEG400:PEG1000 ([8]; 60 mg, 1 mL PEG400:PEG1000 (2% w/w:8% w/w)): Not soluble
- Solubility in PEG400:PEG1000 ([8]; 60 mg, 1 mL PEG400:PEG1000 (6% w/w:4% w/w)): Not soluble
- Solubility in PEG400:PEG1000 ([8]; 60 mg, 1 mL PEG400:PEG1000 (8% w/w:2% w/w)): Soluble
- Solubility in PEG400:PEG1000 ([8]; 80 mg, 1 mL PEG400:PEG1000 (6% w/w:4% w/w)): Not soluble
- Solubility in PEG400:PEG1000 ([8]; 80 mg, 1 mL PEG400:PEG1000 (8% w/w:2% w/w)): Not soluble
- Solubility in PEG400:PEG1000 ([8]; 100 mg, 1 mL PEG400:PEG1000 (6% w/w:4% w/w)): Not soluble
- Solubility in PEG400:PEG1000 ([8]; 100 mg, 1 mL PEG400:PEG1000 (8% w/w:2% w/w)): Not soluble
- Solubility in PEG400:PEG1000 ([8]; 120 mg, 1 mL PEG400:PEG1000 (6% w/w:4% w/w)): Not soluble
- Solubility in PEG400:PEG1000 ([8]; 120 mg, 1 mL PEG400:PEG1000 (8% w/w:2% w/w)): Not soluble
- maximum solubility of zinc ethyl maltol complex ([8]; PEG400): 30000 µg/mL
- elemental zinc achieved in supersaturated solution ([8]; supersaturated solution based on PEG400/PG6000): 28.8 mg/mL
- permeation of elemental zinc [9]: 173.6 μg/cm^2
